Common to all, as to assay type: cell-based, Yersinia pseudotuberculosis
The subject of test [1] is Yop secretion from the wild-type strain pIB102EL. The conditions noted are these: for Inhibition of Yop secretion into the surrounding medium (in words): supernatant after 3 h at 37° C., Western analysis.
Test [2] deals with luciferase light signal from pIB102AL (luxAB downstream of the promoter for YerA).
Test [3] has as its system reporter gene signal from pIB102FΔhlhL (lcrFΔhlh-luxAB).
Test [4] deals with luciferase light signal from pIB29EL (yopE-luxAB). Briefly: microbe, parasite or virus in culture. Particulars: pIB29EL; for Inhibition (%) of the luciferase light signal: Table 2A.
The subject of test [5] is reporter gene signal from pIB102FL (lcrF-luxAB).
Test [6] has as its system luciferase light signal from pIB102EL (yopE-luxAB, wild-type). Briefly: microbe, parasite or virus in culture. The conditions noted are these: pIB102EL; FIG. 5C.

Where two headings read alike, the source gives them in different places.

Data on 3 compounds can be found in patent US7351861B2 (priority 2002, dated 2008).

As to `O=C(N/N=C/c1cc(Br)cc(Br)c1O)c1ccc([N+](=O)[O-])cc1` [Compound 3], in test [1], the “Inhibition of Yop secretion into the surrounding medium (in words)” value (“Inhibition … (in words)” for short) is listed as “efficiently inhibits Yop secretion in a dose dependent manner”. Also, the “Total Yop content, bacteria and surrounding media (in words)” value in test [1] (various concentrations incl. 50 and 100 μM lanes, FIG. 6B) was “Yops can be observed at concentrations that completely inhibit secretion”. In addition, in test [2], the “Selectivity between pIB102EL (YopE promoter) and control strain pIB102AL (in words)” value (from here on “Selectivity between pIB102EL”) was “stronger inhibitory effect on the wild-type strain pIB102EL”. The figures for the “Effect on reporter gene signal (in words)” value (shortened to “Effect”) in test [3] and in test [5] were “more than doubled” and “enhance the reporter gene signal”, respectively. Besides, the “Inhibition (%) of the luciferase light signal” value in test [4] (10 μM) turned out to be 12%; in test [4] (20 μM), 48%; in test [4] (50 μM), 85%; in test [4] (100 μM), 86%. In addition, in test [4], the “Potency within the class of acylated hydrazones of salicylic aldehydes from primary screening (in words)” value is listed as “most potent”.

By inhibition is commonly meant how much of the control response was suppressed. Turning to `CC(=O)Oc1c(I)cc(I)cc1C(=O)Nc1ccc(Cl)cc1` [Compound 4, 2-acetoxy-4′-chloro-3,5-diiodobenzanilide], the “Effect” value in test [6], in test [2], in test [3] and in test [5] was “inhibits the reporter gene signal” in each case. Further, in test [1], the “Inhibition … (in words)” value is “dose dependent inhibition of secretion”. The “Selectivity between pIB102EL” value in test [2] was “no selectivity”. For the same compound, the inhibition at 5 µM in test [4] (Yersinia pseudotuberculosis, read-out: Inhibition (%) of the luciferase light signal, 5 μM (first of two columns headed 5), Table 2B) was found to be 15%; in test [4] (Yersinia pseudotuberculosis, read-out: Inhibition (%) of the luciferase light signal, 5 μM (second of two columns headed 5), Table 2B) it was 45%. Besides, in test [4] (Yersinia pseudotuberculosis, read-out: Inhibition (%) of the luciferase light signal, 10 μM, Table 2B), the inhibition at 10 µM was 81%. The inhibition at 20 µM in test [4] (Yersinia pseudotuberculosis, read-out: Inhibition (%) of the luciferase light signal, 20 μM, Table 2B) was 96%.

For `O=C(Nc1ccc(Cl)c(Cl)c1)c1cc(Cl)ccc1NS(=O)(=O)c1cccc2nsnc12` [Compound 5], in test [1], the “Inhibition … (in words)” value is reported as “dose dependent inhibition of secretion”. In addition, in test [2], the “Selectivity between pIB102EL” value was “stronger inhibitory effect on the wild-type strain pIB102EL”. Besides, the “Effect” value in test [3] is “modest enhancement”; in test [5], “minor inhibition”. In addition, the “Inhibition (%) of the luciferase light signal” value is on record as 35% in test [4] (10 μM), 60% in test [4] (20 μM), 69% in test [4] (50 μM) and 66% in test [4] (100 μM).
